Experimental data published in patent US10918891B2, “Cosmetic treatment method for the skin” (SYNTIVIA, priority 2016, dated 2021).

What was measured:
Type in all cases: cell-based, human
Sirtuin-6 [1] = experiment: Protein expression of Sirtuin-6 by immunofluorescence in NHDF; settings: (Ia) 10 ppm, 24 hours
Experimental: The cells used for this example are normal human Fibroblasts (NHDF).
In this example, the expression of Sirtuin-6 is measured at the protein level by the technique of immunofluorescence, after in vitro incubation of the cells in the absence or in the presence of compound (Ia) at a concentration of 10 ppm in an aqueous solution with 0.1% dimethylsulfoxide (DMSO).
The cells are cultured at the concentration of 5000 cells per well of 96-well plates, in the presence of standard culture medium for NHDF.
The contact with the compound (Ia) is carried out for 24 hours.
TGFβ is used as a positive control at the concentration of 10 ng/ml in an aqueous solution. A non-treated control is also carried out.
The supernatant is eliminated and the cells are prepared for the fluorescent marking. The cells are fixed in the presence of 3.7% formaldehyde, then permeabilised in a buffer containing 1% Triton®, finally the cells are rinsed and incubated in the presence of an anti-SIRT6 antibody (Abcam) for 2 hours. After washing, the cells are incubated in the presence of the secondary antibody (Alexa GAR488, Invitrogen) for 1 h. After washing, the cells are incubated in the presence of DAPI for 10 min, then rinsed once again.
The fluorescence is then quantified using an automated microscope (ArrayScan® (Cellomics®)).

TNFα = experiment: Gene expression of TNFα by quantitative RT-PCR in NHEK; settings: (Ia) 3 ppm (10^−5M), 24 hours
Experimental: (§1) In these examples, the expression of the messenger RNA is measured by the technique of quantitative RT-PCR (reverse transcription followed by polymerase chain reaction), after incubation in vitro of the various cell types in the absence or in the presence of compound (Ia).
(§2) This study was carried out on normal human dermal Fibroblasts (NHDF) or normal human epidermal Keratinocytes (NHEK). The compound (Ia) is tested at 10^−5M in an aqueous solution with 0.1% dimethylsulfoxide.
(§3) The cells are cultured at the concentration of 10,000 cells per well of 96-well plates, in the presence of standard culture medium according to the cell type.
(§4) The compound (Ia) is then added at the concentration (3 ppm), for 24 hours.
(§5) The supernatant is eliminated and the cells are taken up in a specific buffer for the extraction of the messenger RNA (mRNA). The mRNA is purified and reverse transcribed in the presence of a commercial reverse transcriptase.
(§6) The complementary DNA (cDNA) obtained is quantified by RT-PCR, by means of suitable primers. The rate of expression of the mRNA is normalised with 5 reference genes.
(§7) The cells used for this example are normal human keratinocytes (NHEK).

IL8 = experiment: Gene expression of IL8 by quantitative RT-PCR in NHEK; settings: (Ia) 3 ppm (10^−5M), 24 hours
Experimental: as §1, §2, §3, §4, §5, §6, §7

[2] = system: NativeSkin® skin explants (Genoskin); experiment: Breaks in the DNA (γ-H2AX marking) of NativeSkin skin explant ex vivo after UVA irradiation; settings: composition 0.9 mmol/L topical, 60 J/cm^2 UVA every day for 3 days, n=10 images, FIG. 7
Experimental: The test was carried out on NativeSkin® skin explants (Genoskin), a biopsy of skin bathed in a solid, nourishing matrix while its epidermal surface is preserved in contact with the air. The biopsy is firmly anchored in the matrix and sealed in order to prevent any lateral diffusion of formulation intended for topical application.
The study was carried out on a donor (phototype 2) under the following conditions.
The compounds tested are implemented in a composition containing them at 0.9 mmol/L in a mixture of Carbopol® (0.5% p/p), DMSO (0.1% p/p) and H2O (qsp 100%).
The samples are irradiated at 60 J/cm^2 UVA every day for 3 days. A treatment is carried out for 24 h before the irradiation, by application of the composition tested onto the sample (deposition of 40 μl of composition onto the stratum corneum), then a post-treatment of 24 h after the irradiation, in the same manner.
A Control of the sample of skin non-irradiated and a Control of the sample of skin irradiated are also carried out, both with application of the vehicle alone (0.5% Carbopol®, 0.1% DMSO, H2O). The Control of the non-irradiated sample of skin is introduced into the irradiator in a sheet of aluminium, in such a way as to protect it against UVs.
The samples are sampled, cut (according to the conventional method of cryo-sectioning implementing paraffin and freezing) and fixed in 1 ml of formalin for 24 h.
The explants are then included in paraffin and sections of 5 μm are made.
The slides obtained are also marked by immunohistochemistry with the biomarker γ-H2Ax.
The analysis of the marking is carried out with a DM5000B fluorescence microscope (Leica Microsystems) and 10 images are acquired for each sample.
For the marking with γ-H2Ax, for each image, the total number of nuclei is detected with 4′,6-diamidino-2-phenylindole (dapi). In the same image, the number of nuclei having the marking is quantified. The ratio of the number of positive nuclei, multiplied by 100, to the number of total nuclei, is calculated, in order to obtain a percentage (=(positive nuclei*100)/total nuclei), n=10 per sample.
A statistical analysis is carried out with a student's test by comparing the samples to the control (p value[…], p value<0.05**, p value<0.005***, ns not significant).

Sirtuin-6 [3] = experiment: Gene expression of Sirtuin-6 by real-time quantitative PCR in NHDF
Experimental: The cells used for this example are normal human Fibroblasts (NHDF) The cells are inoculated in 96-well plates at a concentration of 10000 cells per well.
The contact with the compound tested is carried out for 24 h. After the 24 h contact, the supernatant is eliminated and the cells are collected in a lysis solution in order to extract the mRNA. The mRNA is reverse transcribed into DNA then quantified by real-time quantitative PCR.

SMILES: Cc1ncc(CO)c(CNC(=O)/C=C/c2ccc(O)c(O)c2)c1O [Compound (Ia)]
- Protein expression of the Sirtuin-6 compared to the basal level, based on 100% (Sirtuin-6 [1]): 113.69%
- Reduction of the gene expression compared to the basal level based on 100% (TNFα) (TNFα): −45%
- Reduction of the gene expression compared to the basal level based on 100% (IL8) (IL8): −75%
- percentage of nuclei positive for marking with γ-H2AX, compared with controls [2]: clearly reduced with respect to the irradiated control sample
- Gene expression of the sirtuin-6 compared to the basal level based on 100% (Sirtuin-6 [3]; 24 h contact): 166%
- stimulation of the expression of the gene of the Sirtuin-6 with respect to the untreated control (Sirtuin-6 [3]; see Example 13): 66%
